Tested on: HUVEC/MSC spheroids viability
Test: Human HUVEC/MSC cell line growth inhibition [KRAS2];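 on viability, T/C: percent of DMSO vehicle control luminescence so 100% = untreated viability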
Details: for IC50: curve of first compound; for viability, T/C: stronger effect = lower value
Text: Multicellular complex tumor spheroid response to RAS pathway inhibitors in combination with a targeted agents in patient-derived cell lines with oncogenic KRAS variants from multiple cancer types
A high-throughput screen of multi-cell type tumor spheroids was designed to identify active combinations of targeted small molecules and KRAS pathway inhibitors. Complex spheroids include a stromal component modeled by human endothelial cells (HUVEC) and fibroblasts modeled by human mesenchymal stem cells (MSCs). The concentration ranges selected for each drug and investigational agent were based upon clinically achievable concentrations if the clinical Cmax of the agent was known. * [This particular assayID is a followup dataset requested by reviewers of the manuscript. It is a test of the HUVEC and MSC without the tumor cells, and was conducted using different drug plates and a different plate layout.]
Compounds. The drugs and investigational agents: BI-3406 (NSC825286), BAY-293 (NSC824723), batoprotafib (TNO155; NSC825523), sotorasib (AMG 510; NSC818433), MRTX1257 (NSC819558), elimusertib (BAY 1895344; NSC800525), molibresib (GSK525762; NSC774829), temuterkib (LY3214996; NSC803410), venetoclax (NSC766270), alisertib (NSC759677), olaparib (NSC753686), talazoparib (NSC767125), erdafitinib (NSC781556), ipatasertib (NSC767898), cabozantinib (NSC761068), nintedanib (NSC756659), abemaciclib (NSC768073), docetaxel (NSC628503), trametinib (NSC758246), and sapanisertib (NSC764658) were obtained from the National Cancer Institute (NCI) Developmental Therapeutics Program Chemical Repository. The FDA-approved anticancer drug set is available from the Developmental Therapeutics Program. […] The stock solutions were prepared in dimethyl sulfoxide (DMSO, Sigma-Aldrich, St. Louis, MO, cat. D2650) at 800-fold the tested concentration and stored at -70 degrees C prior to their use. All drugs and investigational agents were tested over a range starting from a high concentration at or near the clinical Cmax and decreasing in half-log increments. If the clinical Cmax for an agent had not been determined, the highest concentration tested was 10 microM.
Cell Culture. All cells were maintained in an incubator at 37 degrees C and 5% CO2 with 95% humidity. The PDC lines were cultured according to standard operating procedures established by the NCI PDMR (https://pdmr.cancer.gov/sops/default.htm). Briefly, all PDCs were thawed and cultured in Matrigel-coated flasks prepared with a working solution of 1X Ham's F-12 nutrient mix, without supplementation (Invitrogen, Waltham, MA, cat. 11765054), 100 U/mL penicillin-streptomycin (Invitrogen, cat. 15140122), and 2.5% Matrigel (Corning Inc., Corning, NY, cat. 354248) for the first three passages. All PDCs were cultured in complete DMEM/F-12 media containing advanced DMEM/F-12 (Invitrogen, cat. 12634028), 4.9% defined fetal bovine serum, heat inactivated (HyClone Laboratories Inc., Logan, UT, cat. SH30070.03HI), 389 ng/mL hydrocortisone (Sigma-Aldrich, cat. H4001), 9.7 ng/mL human EGF recombinant protein (Invitrogen, cat. PHG0313), 23.4 microg/mL adenine (Sigma-Aldrich, cat. A2786), 97.3 U/mL penicillin-streptomycin (Invitrogen, cat. 15140122), 1.9 mM L-glutamine (Invitrogen, cat. 25030081), and 9.7 microM Y-27632 dihydrochloride (Tocris Bioscience, Bristol, United Kingdom, cat. 1254). The PDCs were cultured in complete DMEM/F12 media without 9.7 microM Y-27632 dihydrochloride for at least two passages prior to the screen. The established cell line HOP-62 was cultured in RPMI 1640 medium, HEPES (Invitrogen, cat. 22400105) with 10% defined fetal bovine serum (HyClone Laboratories Inc., cat. SH30070.03) and 2 mM L-glutamine (Invitrogen, cat. 25030081). The pooled donor HUVEC were cultured in endothelial cell growth medium 2 (PromoCell, Heidelberg, Germany, cat. C-22011) and the hMSC were cultured in mesenchymal stem cell growth medium 2 (PromoCell, cat. C-28009). […]

[1] = second compound 0.0316 µM, first compound 0.0316 µM
[2] = second compound 0.0316 µM, first compound 0.1 µM
[3] = second compound 0.0316 µM, first compound 0.316 µM
[4] = second compound 0.0316 µM, first compound 1 µM
[5] = second compound 0.0316 µM, first compound 3.16 µM
[6] = second compound 0.0316 µM, first compound 10 µM
[7] = second compound 0.1 µM, first compound 0.0316 µM
[8] = second compound 0.1 µM, first compound 0.1 µM
[9] = second compound 0.1 µM, first compound 0.316 µM
[10] = second compound 0.1 µM, first compound 1 µM
[11] = second compound 0.1 µM, first compound 3.16 µM
[12] = second compound 0.1 µM, first compound 10 µM
[13] = second compound 0.316 µM, first compound 0.0316 µM
[14] = second compound 0.316 µM, first compound 0.1 µM
[15] = second compound 0.316 µM, first compound 0.316 µM
[16] = second compound 0.316 µM, first compound 1 µM
[17] = second compound 0.316 µM, first compound 3.16 µM
[18] = second compound 0.316 µM, first compound 10 µM
[19] = second compound 1 µM, first compound 0.0316 µM
[20] = second compound 1 µM, first compound 0.1 µM
[21] = second compound 1 µM, first compound 0.316 µM
[22] = second compound 1 µM, first compound 1 µM
[23] = second compound 1 µM, first compound 3.16 µM
[24] = second compound 1 µM, first compound 10 µM
[25] = second compound 3.16 µM, first compound 0.0316 µM
[26] = second compound 3.16 µM, first compound 0.1 µM
[27] = second compound 3.16 µM, first compound 0.316 µM
[28] = second compound 3.16 µM, first compound 1 µM
[29] = second compound 3.16 µM, first compound 3.16 µM
[30] = second compound 3.16 µM, first compound 10 µM
[31] = second compound 10 µM, first compound 0.0316 µM
[32] = second compound 10 µM, first compound 0.1 µM
[33] = second compound 10 µM, first compound 0.316 µM
[34] = second compound 10 µM, first compound 1 µM
[35] = second compound 10 µM, first compound 3.16 µM
[36] = second compound 10 µM, first compound 10 µM

For `CC(C)NCC(C(=O)N1CCN(c2ncnc3c2C(C)CC3O)CC1)c1ccc(Cl)cc1` (centres undefined) + COc1cc2nc(C)nc(NC(C)c3cc(N)cc(C(F)(F)F)c3)c2cc1OC1CCOC1, the IC50 (second compound 0.0316 µM) was 1970 nM, the IC50 (second compound 0.1 µM) was 1580 nM and the IC50 (second compound 0.316 µM) was 2100 nM. It also gave an IC50 (second compound 1 µM) of 2240 nM, an IC50 (second compound 3.16 µM) of 3010 nM and an IC50 (second compound 10 µM) of 996 nM. It also gave a viability, T/C [1] of 92.4%, a viability, T/C [2] of 95.3% and a viability, T/C [3] of 77.1%. It also gave a viability, T/C [4] of 52%, a viability, T/C [5] of 48% and a viability, T/C [6] of 49.5%. The viability, T/C [7] was 77.5%, the viability, T/C [8] was 97.5% and the viability, T/C [9] was 77.5%. For the same compound, the viability, T/C [10] was 53.4%, the viability, T/C [11] was 50% and the viability, T/C [12] was 36.5%. It also gave a viability, T/C [13] of 80.1%, a viability, T/C [14] of 102% and a viability, T/C [15] of 81.2%. For the same compound, the viability, T/C [16] was 62.9%, the viability, T/C [17] was 42.8% and the viability, T/C [18] was 40.4%. It also gave a viability, T/C [19] of 85.1%, a viability, T/C [20] of 104% and a viability, T/C [21] of 88.5%. For the same compound, the viability, T/C [22] was 59.8%, the viability, T/C [23] was 46.8% and the viability, T/C [24] was 44.1%. For the same compound, the viability, T/C [25] was 74%, the viability, T/C [26] was 94.2% and the viability, T/C [27] was 76.9%. It also gave a viability, T/C [28] of 61.8%, a viability, T/C [29] of 52.9% and a viability, T/C [30] of 36.3%. It also gave a viability, T/C [31] of 58%, a viability, T/C [32] of 71.1% and a viability, T/C [33] of 75.8%. For the same compound, the viability, T/C [34] was 49.9%, the viability, T/C [35] was 42.5% and the viability, T/C [36] was 33.4%.

`COC(=O)c1ccc2c(C(=Nc3ccc(N(C)C(=O)CN4CCN(C)CC4)cc3)c3ccccc3)c(O)[nH]c2c1` + CNCc1ccccc1-c1csc(C(C)Nc2nc(C)nc3cc(OC)c(OC)cc23)c1 was tested, and the IC50 (second compound 0.0316 µM) was 1550 nM, the IC50 (second compound 0.1 µM) was 1470 nM and the IC50 (second compound 0.316 µM) was 1420 nM. It also gave an IC50 (second compound 1 µM) of 1190 nM, an IC50 (second compound 3.16 µM) of 988 nM and an IC50 (second compound 10 µM) of under 31.6 nM. It also gave a viability, T/C [1] of 77%, a viability, T/C [2] of 117% and a viability, T/C [3] of 76.5%. For the same compound, the viability, T/C [4] was 53.4%, the viability, T/C [5] was 37.9% and the viability, T/C [6] was 0.32%. It also gave a viability, T/C [7] of 76.7%, a viability, T/C [8] of 103% and a viability, T/C [9] of 87.3%. The viability, T/C [10] was 48.4%, the viability, T/C [11] was 36.9% and the viability, T/C [12] was 0.41%. It also gave a viability, T/C [13] of 74.6%, a viability, T/C [14] of 125% and a viability, T/C [15] of 90.9%. The viability, T/C [16] was 53.1%, the viability, T/C [17] was 31.9% and the viability, T/C [18] was 0.39%. It also gave a viability, T/C [19] of 72.9%, a viability, T/C [20] of 85.9% and a viability, T/C [21] of 72.3%. It also gave a viability, T/C [22] of 57.5%, a viability, T/C [23] of 10.4% and a viability, T/C [24] of 0.24%. It also gave a viability, T/C [25] of 103%, a viability, T/C [26] of 95.8% and a viability, T/C [27] of 84%. For the same compound, the viability, T/C [28] was 53.1%, the viability, T/C [29] was 0.34% and the viability, T/C [30] was 0.27%. The viability, T/C [31] was 0.37%, the viability, T/C [32] was 0.4% and the viability, T/C [33] was 0.49%. The viability, T/C [34] was 0.51%, the viability, T/C [35] was 0.34% and the viability, T/C [36] was 0.2%.
